In US9821173B2, “Anti-cancer agents and methods of use” (Case Western Reserve University, priority 2013, dated 2017):

Legend:
HeLa = test: Cell proliferation assay (cell-titer blue); assay type: cell-based; conditions: for IC50: cell viability, cell-titer blue, up to 48 hours
Method: (§1) HeLa, MCF-7, HCT-116, and CEM-C7 were obtained from the American Type Culture Collection (Manassas, Va., USA). All adherent cell lines were maintained in Dulbecco's modified Eagle's medium (Mediatech) with 100 U/ml penicillin (Invitrogen), 100 μg/ml streptomycin (Invitrogen), 0.25 μg/ml amphotericin B (Invitrogen), and 10% fetal bovine serum (USA Scientific) and incubated at 37° C. with 5% CO2. CEM cells were maintained in RPMI-1640 media supplemented with 100 U/ml penicillin, 100 μg/ml streptomycin, 0.25 μg/ml amphotericin B, and 10% fetal bovine serum and incubated at 37° C. with […].
(§2) Cells were plated at a density of 7,000-13,000/well in 200 μl of media overnight in a 96-well plate. Each (phosphine)gold(I)-indole was added to wells in a dose-dependent manner (0.01-100 μM). Cells were treated with compounds for variable time periods (8-48 hours). With adherent cell lines, medium was removed from the wells and then 100 μl of fresh medium was added into each well followed by the addition of 20 μl of cell titer-blue reagent (Promega). Cells were incubated with reagent for 1-4 hrs and the optical density of samples was read at 560 nm using a microplate reader. The background absorbance of dye with media was subtracted from each sample. Cell viability was then normalized against cells treated with DMSO. IC50 values were obtained using a fit of the data to Equation 1: Y=100%/[1+(IC50/Inhibitor)] (1)
(§3) where y is the fraction of viable cells, IC50 is the concentration of inhibitor that inhibits 50% cell growth, and Inhibitor is the concentration of compound tested.
(§4) The cellular effects of these (phosphine)gold(I) indoles were tested against several cancer cell lines including HeLa (cervical cancer), MCF-7 (breast cancer), HCT-116 (colon cancer), and CEM-C7 (leukemia). The dose-dependency of each modified indole on cell viability was assessed using a cell-titer blue assay as previously described. In these experiments, cells were exposed to variable concentrations of each (phosphine)gold(I) indole (0.01-100 μM) for up to 48 hours and then assessed for viability.

MCF-7 = test: Cell proliferation assay (cell-titer blue); assay type: cell-based; conditions: cell viability, up to 48 hours
Method: as §1, §2, §3, §4

HCT-116 = test: Cell proliferation assay (cell-titer blue); assay type: cell-based; conditions: cell viability, up to 48 hours, read-out: IC50 HCT116
Method: as §1, §2, §3, §4

HeLa cells = conditions: HeLa, data not shown
Method: HeLa cells were plated at a density of 250,000-300,000 cells/mL. After 24 hr cells, the cells were irradiated in a dose dependent manner (0-4 Gy) using a ^137Cs gamma source. After treatment, the cells were trypsinized and plated at a density between 300-4000 cells in 60 mm dishes. Cells were allowed to grow colonies (1 colony≧50 cells) for 10-14 days, stained with 0.25% crystal violet, and manually counted to measure the number of colonies. Survival fractions were normalized against positive controls (colony formation with no radiation) and plotted as the log percent survival versus dose of radiation. Each experiment was performed an average of four (4) times with cells propagated on several different days.
In this case, we measured the effects of combining these (phosphine)gold(I) indoles with ionizing radiation (IR), a widely used therapy used to treat solid tumors. […] After this time frame, media containing the (phosphine)gold(I) indole was removed and replaced with fresh media. The cells were then irradiated in a dose-dependent fashion from 0 to 6 Gy. Cell viability was assessed using a clonogenic assay that measures colony formation and thus accurately defines the cytotoxic effects of IR exposure. […] The initial linear phase is particularly important as this reflects repair of non-lethal damage inflicted by clinically-relevant doses of IR (˜2 Gy).

CEM-C7 = test: Cell proliferation / cytotoxicity assay; assay type: cell-based; conditions: for IC50: cell viability, cell-titer blue, up to 48 hours
Method: as §1, §2, §3, §4
Defining this mechanism of cell death is important as necrosis can cause various side-effects including septic shock and kidney failure that can obviously compromise patient health.

BSA = BSA (Bos taurus, UniProt P02769); test: Reactivity of Au(I)-compounds with BSA thiol (DTNB -SH titer); design: species or system bovine; conditions: 120 μM compound, Au(I)/BSA ratios up to 4:1, one hour, 37° C., PBS
Method: PBS was used as the reaction buffer.
We tested the ability of various Au(I)-complexes to non-selectively react with BSA. […] P2 resin was effective in retaining Au(I)-containing compounds including compound 3 and compound 4. However, BSA was not retained in the resin as >95% of the BSA loaded into the Penefsky column is recovered in the eluant. […] Values obtained from reactions containing BSA incubated with the various Au(I) complexes were compared to identical reactions containing BSA alone and eluted through Penefsky columns.

Chain of BSA (P02769 25-607): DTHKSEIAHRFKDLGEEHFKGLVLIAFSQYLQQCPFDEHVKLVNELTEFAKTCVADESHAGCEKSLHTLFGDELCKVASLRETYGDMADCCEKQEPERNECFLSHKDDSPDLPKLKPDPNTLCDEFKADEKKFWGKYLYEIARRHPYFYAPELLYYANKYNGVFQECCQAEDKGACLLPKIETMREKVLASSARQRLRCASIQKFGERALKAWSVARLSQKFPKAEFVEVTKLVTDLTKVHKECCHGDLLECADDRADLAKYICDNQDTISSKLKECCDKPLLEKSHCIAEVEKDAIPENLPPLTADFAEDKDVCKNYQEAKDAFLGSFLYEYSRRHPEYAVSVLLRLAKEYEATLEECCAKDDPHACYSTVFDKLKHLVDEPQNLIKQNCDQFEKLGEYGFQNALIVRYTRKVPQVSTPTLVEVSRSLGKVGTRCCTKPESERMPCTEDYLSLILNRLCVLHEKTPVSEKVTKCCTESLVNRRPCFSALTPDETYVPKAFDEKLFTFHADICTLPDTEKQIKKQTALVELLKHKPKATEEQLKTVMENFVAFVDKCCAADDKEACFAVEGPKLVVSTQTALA

SMILES	IC50 (HeLa) [nM]	IC50 (MCF-7) [nM]	IC50 (HCT-116) [nM]	enhancement of the cell killing effects of IR (HeLa cells)	IC50 (CEM-C7) [nM]	anti-cancer (cytostatic or cytotoxic) effects (HeLa; up to the highest concentration of 100 μM)	mechanism of cell death (propidium iodide uptake) (CEM-C7; CEM-C7 cells)	LD50 (CEM-C7; cytotoxic effect, leukemia cell line CEM-C7) [µM]	reactivity with BSA (relative thiol content, -SH titer) (BSA)
Cn1ccc2c[c]([Au-][P+](c3ccccc3-c3ccccc3)(C3CCCCC3)C3CCCCC3)ccc21 [Compound 7, 5-{[1,1′-biphenyl]-2-yldicyclohexylphosphine aurate(I)}-1-methyl-1H-indole]	460	3250	380	do not enhance the cell killing effects of IR	1430	–	–	–	–
CC(C)(C)OC(=O)n1ccc2c[c]([Au-][P+](c3ccccc3-c3ccccc3)(C3CCCCC3)C3CCCCC3)ccc21 [Compound 5, 5-{[1,1′-biphenyl]-2-yldicyclohexylphosphine aurate(I)}-tert-butyl H-indole-1-carboxylate]	2400	2300	3400	–	2100	–	–	–	–
[Au+].[Br-].c1ccc(P(c2ccccc2)c2ccccc2)cc1 [BrAuPPh3, reference compound]	–	–	–	–	–	does not produce significant cytostatic or cytotoxic effects	causes necrosis	0.22 ± 0.05	facile interactions
CC(C)(C)C(=O)OCn1ccc2c[c]([Au-][P+](c3ccccc3-c3ccccc3)(C3CCCCC3)C3CCCCC3)ccc21 [Compound 6, 5-{[1,1′-biphenyl]-2-yldicyclohexylphosphine aurate(I)}-(1H-indol-1-yl)methyl pivalate]	660	960	1800	do not enhance the cell killing effects of IR	420	–	–	–	–
